# According to patent US20060189535A1, “Combination treatment using exendins and thiazolidinediones” (priority 2002, published 2006):
# What was measured:
# dogs = conditions: injected into dogs; cited from earlier work
# male ZDF rat = test: Four weeks combination treatment of overtly diabetic male ZDF rats; HbA1c and 24-hour glucose profiles; format: in vivo; conditions: thiazolidinedione insulin sensitizer x mg/kg oral once daily + Exendin-4(1-39) xx μg/kg s.c. twice daily
# Experimental: Synergistic effect of combining thiazolidinedione insulin sensitizer and exendin-4(1-39) on glucose and HbA1c, (glycosylated hemoglobin) in the male ZDF rat.
# Male ZDF rats were used in the study. Before treatment start, measurements of glucose and HbA1c were performed. All animals were overtly diabetic at the beginning of the study. Animals were allocated into the following 4 treatment groups: • Group 1: Vehicle-1+Vehicle-2 • Group 2: thiazolidinedione insulin sensitizer, x mg/kg+Vehicle-2 (n=10) • Group 3: Vehicle-1+exendin-4(1-39), xx μg/kg • Group 4: thiazolidinedione insulin sensitizer, x mg/kg+exendin-4(1-39), xx μtg/kg
# Thiazolidinedione insulin sensitizer and Vehicle-1 were administered by oral gavage once daily at approx. 07:30. Exendin-4(1-39) and Vehicle-2 were administered subcutaneously twice daily at approx. 07:30 and 14:30.
# After four weeks treatment, HbA1c was measured and 24-hour glucose profiles were assessed.
# The findings of group 1, 2, 3 and 4 are listed. Delta HbA1c values referring to the numerical difference between the measurement after treatment and the measurement before treatment are calculated. Glucose24 hAUc refers to the total area under the glucose concentration curve during the 24-hour period. A two-way analysis of variance are performed for each parameter and the significance of the interaction term evaluated.
substance,measurement,setting,value
Exendin-4(1-39),insulin release and blood glucose level,dogs,stimulate insulin release and ensuing lowering of the blood glucose level
same,"effect on 24-hour glucose profiles (Glucose 24h AUC, two-way ANOVA interaction term)",male ZDF rat,synergistic (greater than additive) effects
same,"effect on HbA1c (delta HbA1c, two-way ANOVA interaction term)",male ZDF rat,synergistic (greater than additive) effects
